In ChEMBL document CHEMBL3045398, “Fungicidal activities of cyflufenamid against various plant-pathogenic fungi” (J Pestic Sci, 2006):
Activity calls are given as the source filed them. The calls are words filed in the database; no cut-off is given here.

Columns and labels:
[1] = tested on: Penicillium italicum; assay: Fungicidal activity against Penicillium italicum assessed as inhibition of mycelial growth measured after 3 to 20 days by agar dilution method; type: functional, organism-based
[2] = tested on: Blumeria graminis f. sp. tritici; assay: Fungicidal activity against Blumeria graminis f. sp. tritici on wheat leaves assessed as spore formation measured at 12.5 ppm; type: functional
[3] = tested on: Elsinoe ampelina; assay: Fungicidal activity against Elsinoe ampelina assessed as inhibition of mycelial growth measured after 3 to 20 days by agar dilution method; type: functional, organism-based
[4] = tested on: Cladosporium cucumerinum; assay: Fungicidal activity against Cladosporium cucumerinum assessed as inhibition of mycelial growth measured after 3 to 20 days by agar dilution method; type: functional, organism-based
[5] = tested on: Fusarium graminearum; assay: Fungicidal activity against Fusarium graminearum assessed as inhibition of mycelial growth measured after 3 to 20 days by agar dilution method; type: functional, organism-based
[6] = tested on: Rhizoctonia solani; assay: Fungicidal activity against Rhizoctonia solani assessed as inhibition of mycelial growth measured after 3 to 20 days by agar dilution method; type: functional, organism-based
[7] = tested on: Diaporthe citri; assay: Fungicidal activity against Diaporthe citri assessed as inhibition of mycelial growth measured after 3 to 20 days by agar dilution method; type: functional, organism-based
[8] = tested on: Phomopsis; assay: Fungicidal activity against Phomopsis sp. assessed as inhibition of mycelial growth measured after 3 to 20 days by agar dilution method; type: functional, organism-based
[9] = tested on: Oculimacula yallundae; assay: Fungicidal activity against Oculimacula yallundae assessed as inhibition of mycelial growth measured after 3 to 20 days by agar dilution method; type: functional, organism-based
[10] = tested on: Venturia inaequalis; assay: Fungicidal activity against Venturia inaequalis assessed as inhibition of mycelial growth measured after 3 to 20 days by agar dilution method; type: functional, organism-based
[11] = tested on: Blumeria graminis f. sp. tritici; assay: Fungicidal activity against Blumeria graminis f. sp. tritici on wheat (Triticum aestivum, cv. Chihoku) assessed as powdery mildew disease control at 0.8 ppm measured after 5 to 10 days; type: functional
[12] = tested on: Blumeria graminis f. sp. tritici; assay: Fungicidal activity against Blumeria graminis f. sp. tritici on wheat leaves assessed as spore formation measured at 0.2 ppm; type: functional
[13] = tested on: Phytophthora infestans; assay: Fungicidal activity against Phytophthora infestans assessed as inhibition of mycelial growth measured after 3 to 20 days by agar dilution method; type: functional, organism-based
[14] = tested on: Fulvia fulva; assay: Fungicidal activity against Fulvia fulva assessed as inhibition of mycelial growth measured after 3 to 20 days by agar dilution method; type: functional, organism-based
[15] = tested on: Blumeria graminis f. sp. tritici; assay: Fungicidal activity against Blumeria graminis f. sp. tritici on wheat (Triticum aestivum, cv. Chihoku) assessed as powdery mildew disease control at 0.2 ppm measured after 5 to 10 days; type: functional
[16] = tested on: Blumeria graminis f. sp. tritici; assay: Fungicidal activity against Blumeria graminis f. sp. tritici on wheat leaves assessed as rate of appressorium formation measured at 12.5 ppm after 24 hr (reference value: 89.7 +/- 4%); type: functional
[17] = tested on: Microdochium nivale; assay: Fungicidal activity against Microdochium nivale assessed as inhibition of mycelial growth measured after 3 to 20 days by agar dilution method; type: functional, organism-based
[18] = tested on: Blumeria graminis f. sp. tritici; assay: Fungicidal activity against Blumeria graminis f. sp. tritici on wheat leaves assessed as spore formation measured at 0.8 ppm; type: functional
[19] = tested on: Blumeria graminis f. sp. tritici; assay: Fungicidal activity against Blumeria graminis f. sp. tritici on wheat leaves assessed as rate of appressorium formation measured at 12.5 ppm after 12 hr (reference value: 22.3 +/- 10.2%); type: functional
[20] = tested on: Fusarium oxysporum; assay: Fungicidal activity against Fusarium oxysporum assessed as inhibition of mycelial growth measured after 3 to 20 days by agar dilution method; type: functional, organism-based
[21] = tested on: Parastagonospora nodorum; assay: Fungicidal activity against Phaeosphaeria nodorum assessed as inhibition of mycelial growth measured after 3 to 20 days by agar dilution method; type: functional, organism-based
[22] = tested on: Venturia inaequalis; assay: Fungicidal activity against Venturia inaequalis on apple (Malus pumila var. domestica, cv. Rall's Janett) assessed as scab control at 200 ppm measured after 5 to 10 days; type: functional
[23] = tested on: Blumeria graminis f. sp. tritici; assay: Fungicidal activity against Blumeria graminis f. sp. tritici on wheat (Triticum aestivum, cv. Chihoku) assessed as powdery mildew disease control at 12.5 ppm measured after 5 to 10 days; type: functional
[24] = tested on: Monilinia fructicola; assay: Fungicidal activity against Monilinia fructicola assessed as inhibition of mycelial growth measured after 3 to 20 days by agar dilution method; type: functional, organism-based
[25] = tested on: Cytospora ceratosperma; assay: Fungicidal activity against Valsa ceratosperma assessed as inhibition of mycelial growth measured after 3 to 20 days by agar dilution method; type: functional, organism-based
[26] = tested on: Colletotrichum lagenaria; assay: Fungicidal activity against Colletotrichum lagenaria assessed as inhibition of mycelial growth measured after 3 to 20 days by agar dilution method; type: functional, organism-based
[27] = tested on: Blumeria graminis f. sp. tritici; assay: Fungicidal activity against Blumeria graminis f. sp. tritici on wheat (Triticum aestivum, cv. Chihoku) assessed as powdery mildew disease control at 0.05 ppm measured after 5 to 10 days; type: functional
[28] = tested on: Botrytis cinerea; assay: Fungicidal activity against Botryotinia fuckeliana assessed as inhibition of mycelial growth measured after 3 to 20 days by agar dilution method; type: functional, organism-based
[29] = tested on: Bipolaris oryzae; assay: Fungicidal activity against Bipolaris oryzae assessed as inhibition of mycelial growth measured after 3 to 20 days by agar dilution method; type: functional, organism-based
[30] = tested on: Blumeria graminis f. sp. tritici; assay: Fungicidal activity against Blumeria graminis f. sp. tritici on wheat leaves assessed as colony formation measured at 12.5 ppm; type: functional
[31] = tested on: Rosellinia necatrix; assay: Fungicidal activity against Rosellinia necatrix assessed as inhibition of mycelial growth measured after 3 to 20 days by agar dilution method; type: functional, organism-based
[32] = tested on: Blumeria graminis f. sp. tritici; assay: Fungicidal activity against Blumeria graminis f. sp. tritici on wheat leaves assessed as rate of spore germination measured at 12.5 ppm after 6 hr (reference value: 49.8 +/- 17.3%); type: functional
[33] = tested on: Blumeria graminis f. sp. tritici; assay: Fungicidal activity against Blumeria graminis f. sp. tritici on wheat leaves assessed as rate of appressorium formation measured at 12.5 ppm after 168 hr; type: functional
[34] = tested on: Blumeria graminis f. sp. tritici; assay: Fungicidal activity against Blumeria graminis f. sp. tritici on wheat leaves assessed as rate of appressorium formation measured at 12.5 ppm after 6 hr (reference value: 3.5 +/- 2.5%); type: functional
[35] = tested on: Blumeria graminis f. sp. tritici; assay: Fungicidal activity against Blumeria graminis f. sp. tritici on wheat leaves assessed as colony formation measured at 3.1 ppm; type: functional
[36] = tested on: Podosphaera fusca; assay: Fungicidal activity against Sphaerotheca cucurbitae in cucumber assessed as powdery mildew disease control measured after 7 to 10 days by pot test; type: functional
[37] = tested on: Blumeria graminis f. sp. tritici; assay: Fungicidal activity against Blumeria graminis f. sp. tritici on wheat leaves assessed as rate of appressorium formation measured at 0.2 ppm after 168 hr; type: functional
[38] = tested on: Podosphaera aphanis; assay: Fungicidal activity against Podosphaera aphanis var. aphanis in strawberry assessed as powdery mildew disease control measured after 7 to 10 days by pot test; type: functional
[39] = tested on: Blumeria graminis f. sp. tritici; assay: Fungicidal activity against Blumeria graminis f. sp. tritici on wheat (Triticum aestivum, cv. Chihoku) assessed as powdery mildew disease control at 50 ppm measured after 5 to 10 days; type: functional
[40] = tested on: Monilinia fructicola; assay: Fungicidal activity against Monilinia fructicola assessed as vacuolated hyphae measured by Transmission electron microscopy; type: functional, organism-based
[41] = tested on: Botryosphaeria; assay: Fungicidal activity against Botryosphaeria sp. assessed as inhibition of mycelial growth measured after 3 to 20 days by agar dilution method; type: functional, organism-based
[42] = tested on: Blumeria graminis f. sp. tritici; assay: Fungicidal activity against Blumeria graminis f. sp. tritici on wheat (Triticum aestivum, cv. Chihoku) assessed as powdery mildew disease control at 200 ppm measured after 5 to 10 days; type: functional

## O=C(Cc1ccccc1)N/C(=N\OCC1CC1)c1c(C(F)(F)F)ccc(F)c1F [CYFLUFENAMID]
[1]
  EC50: 7 ppm
[2]
  inhibition at 12.5 ppm: 100%
[3]
  EC50: 5 ppm
[4]
  EC50: > 100 ppm
[5]
  EC50: > 100 ppm
[6]
  EC50: > 100 ppm
[7]
  EC50: 6 ppm
[8]
  EC50: > 100 ppm
[9]
  EC50: > 100 ppm
[10]
  EC50: > 100 ppm
[11]
  Efficacy: 100%
[12]
  inhibition at 0.2 ppm: 97%
[13]
  EC50: > 100 ppm
[14]
  EC50: > 100 ppm
[15]
  Efficacy: 66%
[16]
  Activity: 87.9%
[17]
  EC50: 0.3 ppm
[18]
  inhibition at 0.8 ppm: 100%
[19]
  Activity: 28.1%
[20]
  EC50: > 100 ppm
[21]
  EC50: > 100 ppm
[22]
  Efficacy: 0%
[23]
  Efficacy: 100%
[24]
  EC50: 0.01 ppm
[25]
  EC50: 8 ppm
[26]
  EC50: > 100 ppm
[27]
  Efficacy: 30%
[28]
  EC50: > 100 ppm
[29]
  EC50: > 100 ppm
[30]
  inhibition at 12.5 ppm: 100%
[31]
  EC50: 0.7 ppm
[32]
  Activity: 47.6%
[33]
  inhibition at 12.5 ppm: 100%
[34]
  Activity: 0.4%
[35]
  inhibition at 3.1 ppm: 100%
[36]
  MIC: < 0.8 µg/mL
[37]
  inhibition at 0.2 ppm: 80.1%
[38]
  MIC: < 0.8 µg/mL
[39]
  Efficacy: 100%
[40]
  Activity: Active
[41]
  EC50: 0.07 ppm
[42]
  Efficacy: 100%
